Results as given in ChEMBL document CHEMBL1146491, “Seco[D-Asp3]microcystin-RR and [D-Asp3,D-Glu(OMe)6]microcystin-RR, two new microcystins from a toxic water bloom of the cyanobacterium planktothrixrubescens” (J Nat Prod, 2004).

Assay: Inhibition of recombinant PP1

| Compound | IC30 [µM] |
| --- | --- |
| C=C1C(=O)N[C@H](C)C(=O)N[C@@H](CCCNC(=N)N)C(=O)N[C@@H](C(=O)O)CC(=O)N[C@@H](CCCNC(=N)N)C(=O)N[C@@H](/C=C/C(C)=C/[C@H](C)[C@H](Cc2ccccc2)OC)[C@H](C)C(=O)N[C@@H](C(=O)O)CCC(=O)N1C | 7.8 |
| CNC(=O)CC[C@@H](NC(=O)[C@@H](C)[C@H](/C=C/C(C)=C/[C@H](C)[C@H](Cc1ccccc1)OC)NC(=O)[C@H](CCCNC(=N)N)NC(=O)C[C@@H](NC(=O)[C@H](CCCNC(=N)N)NC(=O)[C@@H](C)NC(=O)C(C)=O)C(=O)O)C(=O)O | 0.8 |
